The values that follow come from patent US20060112446A1, “Transposon genes of rice, transformed plant and method of use” (priority 2001, published 2006).

Assay [1] deals with transposon gene (430 bp, Sequence Number 1) in calli derived from Nihonbare seeds. Kind of assay: PCR detection of deletion (transposition) of the nonautonomous transposon gene in seed-derived calli grown on 5-azacytidine medium (Example 5). The format is cell-based, rice (Oryza sativa), cultivar Nihonbare. On the procedure: Seeds of Nihonbare were sterilized in 3% sodium hypochlorite solution for 15˜30 min, washed with sterilized water, inoculated on a 90×20 mm of Petri dish (Iwaki Co.) containing 20˜30 ml of media at the rate of 9 seeds per dish and subjected to induction culture under light for 24 h at 30° C. We used a solid medium consisting of 4 g of CHU (N6) BASAL SALT MIXTURE® (Sigma Co.), 1 ml of MS VITAMIN SOLUTION® (Sigma Co.), 2 mg of 2,4-dichloro-phenoxyacetic acid (Sigma Co.), 0.3 g of casamino acids (DIFCO), 0.1 g of myo-inositol (Sigma Co.), 2.878 g proline (Wako), 30 g of sucrose (Wako), 2 g of Gelrite® (Wako) in 1 L of medium.
After several days, calli were started forming from scutellum inside rice seeds and changed to cream-colored ones with 5 mm length on the 10th day of culture. The creamy-colored calli with 5mm length were transplanted to growth media supplemented with 5-azacytidine (Sigma Co.) at either 0 mM, 0.01 mM, 0.03 mM, 0.05 mM, 0.1 mM or 0.3 mM, respectively, and subjected to growth culture under light for 24 h at 30° C. We used a solid medium consisting of 4 g of CHU (N6) BASAL SALT MIXTURE® (Sigma Co.), 1 ml of MS VITAMIN SOLUTION® (Sigma Co.), 2 mg of 2, 4-dichloro-phenoxyacetic acid (Sigma Co.), 0.3 g of casamino acids (DIFCO), 0.1 g of myo-inositol (Sigma Co.), 2.878 g proline (Wako), 30 g of sucrose (Wako), 2 g of GELRITE® (Wako) in 1 L of medium. […]

The subject of assay [2] is transposon gene with the nucleotide sequence of Sequence Number 3 in scutellum-derived calli. The assay is described as follows: PCR detection of deletion (transposition) of the autonomous transposon gene in scutellum-derived calli treated with 5-azacytidine (Example 9). To be noted: for The frequency of deletion (calli with deletion/calli examined) / The frequency of deletion (percent): scutellum-derived Nihonbare calli, 2 weeks growth culture. The format is cell-based, rice (Oryza sativa), cultivar Nihonbare. Here is the method: In this example, we examined the transposition activity of the nucleotide sequence of Sequence Number 3 in anther-derived calli and in scutellum-derived calli treated with 5-azacytidine.
Seeds of Nihonbare, a rice cultivar, were sterilized in3% sodium hypochlorite solution for 15˜30 min, washed with sterilized water, inoculated on a 90×20 mm of Petri dish (Iwaki Co.) with 20˜30 ml of media at the rate of 9 seeds per dish and subjected to induction culture under light for 24 h at 30° C. Used was a solid medium consisting of 4 g of CHU (N6) BASAL SALT MIXTURE® (Sigma Co.), 1 ml of MS VITAMIN SOLUTION® (Sigma Co.), 2 mg of 2,4-dichloro-phenoxyacetic acid (Sigma Co.), 0.3 g of casamino acids (DIFCO), 0.1 g of myo-inositol (Sigma Co.), 2.878 g proline (Wako), 30 g of sucrose (Wako), 2 g of GELRITE® (Wako) in 1 L of medium. On the 10th day of inductive culture, the calli derived from induced seeds were transferred to a growth medium supplemented with 5-azacytidine (Sigma) at 0 mM, 0.1 mM or 0.5 mM and were subjected to growth culture underlight for 24 h at 33° C. Used was a solid medium consisting of 4 g of CHU (N6) BASAL SALT MIXTURE® (Sigma Co.), 1 ml of MS VITAMIN SOLUTION® (Sigma Co.), 2 mg of 2,4-dichloro-phenoxyacetic acid (Sigma Co.), 0.3 g of casamino acids (DIFCO), 0.1 g of myo-inositol (Sigma Co.), 2.878 g proline (Wako), 30 g of sucrose (Wako), 2 g of GELRITE® (Wako) in 1 L of medium. DNA was extracted from calli derived from seeds in growth culture for two weeks by DNEASY PLANT MINI KIT® (Qiagen).
To amplify the DNA region containing the transposon DNA by PCR, we used the oligonucleotides comprising the sequences of Sequence Numbers 26 and 27 as PCR primers. Each reaction mixture (100 μl) contained 200 ng of DNA, 2.5 units of TAKARA LA TAQ® (Takara Co.), 10 μl of 10× LA PCR bufferII, 6 µl of 25 mM MgCl2, 8 μl of dNTP Mixture (2.5mM each dNTP) and 100 pmol of primers. Each cycle of the polymerase reaction consisted of a denaturation step at 94° C. for 30 sec and an extension step at 68° C. for 12 min. This cycle was repeated 35 times. After the reaction, PCR products were separated on 0.8% LO3 AGAROSE® (Takara Co.) gel electrophoresis.

On to `Nc1ncn([C@@H]2O[C@H](CO)[C@@H](O)[C@H]2O)c(=O)n1` [5-azacytidine], for which the “DNA bands in PCR of the region containing the transposon gene (approx. 300 bp band = transposon gene deleted)” value in assay [1] (seed-derived Nihonbare calli, 0.03 mM-0.3 mM 5-azacytidine in growth medium, 2 weeks growth culture) was “Two DNA bands of approximately 730 bp and 300 bp were observed”. Moreover, the “Induction of transposition of the transposon gene” value in assay [1] (seed-derived calli, 5-azacytidine treatment) was “could be induced even for seed-derived calli”. For the same compound, the “The frequency of deletion (calli with deletion/calli examined)” value is recorded as 2/8 in assay [2] (0.1 mM 5-azacytidine) and 7/8 in assay [2] (0.5 mM 5-azacytidine). Further, the “The frequency of deletion (percent)” value in assay [2] (0.1 mM 5-azacytidine) is on record as “(25%)”; in assay [2] (0.5 mM 5-azacytidine) it was “(87.5%)”. Further, the “Transposition of the transposon gene of Sequence Number 3” value in assay [2] (scutellum-derived calli treated with 5-azacytidine) is given as “high frequency of transposition”.
